Assay results: ChEMBL document CHEMBL4507319 (2021)

Experiments:
[1] = target: Calcium/calmodulin-dependent protein kinase kinase 2 (Homo sapiens) (UniProt Q96RR4); conditions: Compound concentration 1000.0 nM
[2] = target: Casein kinase I isoform delta (Homo sapiens) (UniProt P48730); conditions: Compound concentration 1000.0 nM
[3] = target: Tyrosine-protein kinase Fer (Homo sapiens) (UniProt P16591); conditions: Compound concentration 1000.0 nM
[4] = target: Fibroblast growth factor receptor 1 (Homo sapiens) (UniProt P11362); conditions: Compound concentration 1000.0 nM
Fibroblast growth factor receptor 1 (Homo sapiens), sequence (P11362 22-822 limits assumed): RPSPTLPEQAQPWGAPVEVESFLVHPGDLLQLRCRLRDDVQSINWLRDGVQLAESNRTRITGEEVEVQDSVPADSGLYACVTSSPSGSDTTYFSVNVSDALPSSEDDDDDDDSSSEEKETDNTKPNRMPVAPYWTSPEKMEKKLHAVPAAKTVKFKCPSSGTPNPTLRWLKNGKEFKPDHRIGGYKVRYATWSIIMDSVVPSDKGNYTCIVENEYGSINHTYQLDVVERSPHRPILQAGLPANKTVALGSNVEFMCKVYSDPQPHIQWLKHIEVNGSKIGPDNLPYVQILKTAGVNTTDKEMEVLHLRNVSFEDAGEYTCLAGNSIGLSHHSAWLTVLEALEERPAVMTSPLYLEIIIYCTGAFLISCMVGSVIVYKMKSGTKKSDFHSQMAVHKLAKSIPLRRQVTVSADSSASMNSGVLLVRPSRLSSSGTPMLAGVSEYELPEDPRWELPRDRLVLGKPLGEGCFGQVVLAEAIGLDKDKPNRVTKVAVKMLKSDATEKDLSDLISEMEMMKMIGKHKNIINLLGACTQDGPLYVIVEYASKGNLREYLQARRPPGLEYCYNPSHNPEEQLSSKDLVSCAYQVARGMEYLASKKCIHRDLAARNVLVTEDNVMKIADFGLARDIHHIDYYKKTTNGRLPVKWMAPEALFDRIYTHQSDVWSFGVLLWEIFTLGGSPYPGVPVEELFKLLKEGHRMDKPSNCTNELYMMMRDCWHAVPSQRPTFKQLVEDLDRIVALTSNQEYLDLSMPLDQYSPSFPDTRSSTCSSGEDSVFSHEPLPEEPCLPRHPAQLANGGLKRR

[5] = target: Tyrosine-protein kinase FRK (Homo sapiens) (UniProt P42685); conditions: Compound concentration 1000.0 nM
Tyrosine-protein kinase FRK (Homo sapiens), sequence (P42685 whole entry): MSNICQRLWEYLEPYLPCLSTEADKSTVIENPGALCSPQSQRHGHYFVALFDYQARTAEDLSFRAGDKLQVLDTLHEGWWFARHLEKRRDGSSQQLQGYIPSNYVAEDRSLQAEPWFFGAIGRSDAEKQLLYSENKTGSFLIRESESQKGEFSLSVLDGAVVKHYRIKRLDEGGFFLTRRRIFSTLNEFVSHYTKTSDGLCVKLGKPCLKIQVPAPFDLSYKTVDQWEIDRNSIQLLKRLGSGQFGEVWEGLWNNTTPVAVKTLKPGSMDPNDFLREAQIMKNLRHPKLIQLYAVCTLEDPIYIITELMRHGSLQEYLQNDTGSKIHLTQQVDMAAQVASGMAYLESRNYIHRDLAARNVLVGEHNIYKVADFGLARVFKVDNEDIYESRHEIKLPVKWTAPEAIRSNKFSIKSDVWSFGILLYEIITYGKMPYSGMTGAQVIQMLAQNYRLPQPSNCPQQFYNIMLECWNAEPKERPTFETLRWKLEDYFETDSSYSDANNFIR

[6] = target: Tyrosine-protein kinase Lyn (Homo sapiens) (UniProt P07948); conditions: Compound concentration 1000.0 nM
Tyrosine-protein kinase Lyn (Homo sapiens), sequence (P07948 2-512 limits assumed): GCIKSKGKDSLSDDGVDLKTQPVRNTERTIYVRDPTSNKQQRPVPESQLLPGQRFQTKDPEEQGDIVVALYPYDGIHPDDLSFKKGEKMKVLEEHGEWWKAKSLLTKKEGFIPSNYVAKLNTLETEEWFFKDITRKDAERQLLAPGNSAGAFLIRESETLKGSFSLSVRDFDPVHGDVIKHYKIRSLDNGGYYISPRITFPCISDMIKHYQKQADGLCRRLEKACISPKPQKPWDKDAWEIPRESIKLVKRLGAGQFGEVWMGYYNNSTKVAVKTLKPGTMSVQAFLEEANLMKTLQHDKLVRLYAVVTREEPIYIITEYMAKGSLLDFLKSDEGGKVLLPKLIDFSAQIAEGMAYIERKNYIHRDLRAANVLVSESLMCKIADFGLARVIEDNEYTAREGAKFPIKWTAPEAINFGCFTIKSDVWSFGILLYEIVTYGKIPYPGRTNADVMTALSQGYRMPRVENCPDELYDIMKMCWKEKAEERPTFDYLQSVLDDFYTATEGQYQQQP

[7] = target: T1, Serine/threonine-protein kinase MAK (Homo sapiens) (UniProt P20794); conditions: Compound concentration 1000.0 nM
T1 sequence (whole entry): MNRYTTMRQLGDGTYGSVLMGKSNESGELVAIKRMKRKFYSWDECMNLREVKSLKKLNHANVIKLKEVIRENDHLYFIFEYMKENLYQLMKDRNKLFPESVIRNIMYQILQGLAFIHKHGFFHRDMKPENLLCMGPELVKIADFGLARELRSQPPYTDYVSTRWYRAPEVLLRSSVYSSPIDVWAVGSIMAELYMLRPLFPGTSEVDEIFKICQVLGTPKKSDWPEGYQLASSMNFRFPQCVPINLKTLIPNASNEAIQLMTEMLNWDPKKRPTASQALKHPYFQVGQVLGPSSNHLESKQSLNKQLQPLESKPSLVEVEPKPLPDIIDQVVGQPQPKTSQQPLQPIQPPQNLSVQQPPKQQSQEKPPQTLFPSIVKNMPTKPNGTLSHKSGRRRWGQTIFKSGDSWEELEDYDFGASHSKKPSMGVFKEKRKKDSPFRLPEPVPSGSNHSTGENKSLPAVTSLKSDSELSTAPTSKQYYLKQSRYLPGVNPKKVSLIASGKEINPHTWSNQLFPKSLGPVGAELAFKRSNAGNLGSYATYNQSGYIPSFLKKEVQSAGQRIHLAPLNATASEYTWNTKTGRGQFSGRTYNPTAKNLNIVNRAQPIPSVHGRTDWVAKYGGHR

[8] = target: T2, SNF-related serine/threonine-protein kinase (Homo sapiens) (UniProt Q9NRH2); conditions: Compound concentration 1000.0 nM
T2 sequence (whole entry): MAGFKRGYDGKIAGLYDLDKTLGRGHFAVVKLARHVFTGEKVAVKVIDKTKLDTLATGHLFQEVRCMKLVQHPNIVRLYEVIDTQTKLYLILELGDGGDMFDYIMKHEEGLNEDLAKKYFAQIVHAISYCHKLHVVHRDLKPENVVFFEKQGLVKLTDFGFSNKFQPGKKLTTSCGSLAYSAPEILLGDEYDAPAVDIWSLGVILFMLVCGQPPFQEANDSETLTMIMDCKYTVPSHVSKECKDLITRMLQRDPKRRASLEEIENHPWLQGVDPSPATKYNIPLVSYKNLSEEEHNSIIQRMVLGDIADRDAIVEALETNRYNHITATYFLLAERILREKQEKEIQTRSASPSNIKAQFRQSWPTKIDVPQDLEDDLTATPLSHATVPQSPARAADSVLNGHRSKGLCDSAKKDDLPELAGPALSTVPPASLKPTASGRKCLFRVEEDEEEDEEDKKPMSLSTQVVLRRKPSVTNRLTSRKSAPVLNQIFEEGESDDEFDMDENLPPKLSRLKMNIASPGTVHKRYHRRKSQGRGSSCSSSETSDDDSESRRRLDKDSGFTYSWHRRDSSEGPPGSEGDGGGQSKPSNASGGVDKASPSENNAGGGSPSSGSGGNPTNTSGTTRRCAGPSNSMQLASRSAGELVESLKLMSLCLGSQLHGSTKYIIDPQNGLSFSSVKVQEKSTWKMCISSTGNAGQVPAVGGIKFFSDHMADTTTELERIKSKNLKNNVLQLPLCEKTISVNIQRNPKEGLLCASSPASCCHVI

[9] = target: SRSF protein kinase 2 (Homo sapiens) (UniProt P78362); conditions: Compound concentration 1000.0 nM
SRSF protein kinase 2 (Homo sapiens), sequence (P78362 whole entry, looked up): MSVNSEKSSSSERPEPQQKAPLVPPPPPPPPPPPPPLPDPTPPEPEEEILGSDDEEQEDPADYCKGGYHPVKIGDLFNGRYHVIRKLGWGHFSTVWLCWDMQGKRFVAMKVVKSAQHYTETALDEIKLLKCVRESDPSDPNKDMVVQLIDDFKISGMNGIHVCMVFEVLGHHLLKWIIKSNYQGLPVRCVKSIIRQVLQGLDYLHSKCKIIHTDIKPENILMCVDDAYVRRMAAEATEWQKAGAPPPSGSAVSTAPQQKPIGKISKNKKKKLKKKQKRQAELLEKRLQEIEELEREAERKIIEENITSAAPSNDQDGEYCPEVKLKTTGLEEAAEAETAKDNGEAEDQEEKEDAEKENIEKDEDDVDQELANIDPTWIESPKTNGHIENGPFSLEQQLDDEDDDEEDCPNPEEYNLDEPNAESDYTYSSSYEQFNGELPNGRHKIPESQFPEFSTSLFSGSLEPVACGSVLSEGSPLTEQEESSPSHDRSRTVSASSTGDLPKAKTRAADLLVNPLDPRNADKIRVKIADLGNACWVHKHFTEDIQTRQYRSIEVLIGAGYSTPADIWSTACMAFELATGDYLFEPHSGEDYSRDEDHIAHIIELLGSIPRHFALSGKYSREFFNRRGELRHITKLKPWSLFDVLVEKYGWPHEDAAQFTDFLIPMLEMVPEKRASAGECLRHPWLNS

[10] = target: T3, Serine/threonine-protein kinase ULK2 (Homo sapiens) (UniProt Q8IYT8); conditions: Compound concentration 1000.0 nM
T3 sequence (whole entry): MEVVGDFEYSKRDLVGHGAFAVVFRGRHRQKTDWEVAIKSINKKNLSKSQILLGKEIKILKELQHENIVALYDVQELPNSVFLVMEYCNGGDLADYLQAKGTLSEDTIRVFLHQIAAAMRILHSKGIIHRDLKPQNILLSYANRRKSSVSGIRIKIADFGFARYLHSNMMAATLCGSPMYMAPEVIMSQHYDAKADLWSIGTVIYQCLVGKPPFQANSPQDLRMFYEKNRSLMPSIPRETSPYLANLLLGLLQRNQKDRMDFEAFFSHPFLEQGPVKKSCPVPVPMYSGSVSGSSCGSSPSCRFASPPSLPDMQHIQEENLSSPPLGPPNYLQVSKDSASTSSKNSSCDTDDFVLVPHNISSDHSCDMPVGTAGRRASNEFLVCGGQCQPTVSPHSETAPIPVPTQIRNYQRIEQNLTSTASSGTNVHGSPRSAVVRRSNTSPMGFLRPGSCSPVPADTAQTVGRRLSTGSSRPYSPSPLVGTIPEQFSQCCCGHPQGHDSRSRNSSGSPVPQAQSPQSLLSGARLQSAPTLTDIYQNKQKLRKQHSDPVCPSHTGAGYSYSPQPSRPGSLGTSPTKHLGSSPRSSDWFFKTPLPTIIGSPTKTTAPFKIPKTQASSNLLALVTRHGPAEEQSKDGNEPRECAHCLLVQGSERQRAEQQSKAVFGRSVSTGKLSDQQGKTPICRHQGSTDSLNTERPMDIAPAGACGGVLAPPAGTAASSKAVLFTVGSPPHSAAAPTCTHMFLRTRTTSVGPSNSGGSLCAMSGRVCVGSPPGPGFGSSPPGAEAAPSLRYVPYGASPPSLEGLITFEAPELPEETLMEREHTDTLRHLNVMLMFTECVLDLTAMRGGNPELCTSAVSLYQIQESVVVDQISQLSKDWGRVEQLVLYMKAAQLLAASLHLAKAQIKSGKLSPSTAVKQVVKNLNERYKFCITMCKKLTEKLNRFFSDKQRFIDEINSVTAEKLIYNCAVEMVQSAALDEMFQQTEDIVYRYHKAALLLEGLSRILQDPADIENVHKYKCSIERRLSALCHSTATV

[11] = target: Alpha-1D adrenergic receptor (Homo sapiens) (UniProt P25100); conditions: Compound concentration 10.0 uM
Alpha-1D adrenergic receptor (Homo sapiens), sequence (P25100 whole entry): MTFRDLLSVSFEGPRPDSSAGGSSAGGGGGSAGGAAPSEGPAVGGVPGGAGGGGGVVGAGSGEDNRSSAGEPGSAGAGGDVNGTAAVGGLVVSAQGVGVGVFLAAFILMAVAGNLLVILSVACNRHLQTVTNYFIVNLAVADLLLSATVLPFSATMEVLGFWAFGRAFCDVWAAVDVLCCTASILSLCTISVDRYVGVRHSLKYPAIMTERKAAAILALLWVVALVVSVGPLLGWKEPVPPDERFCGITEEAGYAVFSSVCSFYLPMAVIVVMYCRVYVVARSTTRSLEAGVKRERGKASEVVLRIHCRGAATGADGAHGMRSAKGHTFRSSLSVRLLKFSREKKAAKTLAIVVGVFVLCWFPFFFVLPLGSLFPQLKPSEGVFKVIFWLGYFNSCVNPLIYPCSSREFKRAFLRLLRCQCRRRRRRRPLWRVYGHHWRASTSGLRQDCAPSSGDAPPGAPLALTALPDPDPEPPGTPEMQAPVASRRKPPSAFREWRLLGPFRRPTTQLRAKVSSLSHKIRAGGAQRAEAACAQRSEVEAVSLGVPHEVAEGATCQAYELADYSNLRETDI

Tyrosine-protein kinase Fer (Homo sapiens), sequence (P16591 whole entry, looked up): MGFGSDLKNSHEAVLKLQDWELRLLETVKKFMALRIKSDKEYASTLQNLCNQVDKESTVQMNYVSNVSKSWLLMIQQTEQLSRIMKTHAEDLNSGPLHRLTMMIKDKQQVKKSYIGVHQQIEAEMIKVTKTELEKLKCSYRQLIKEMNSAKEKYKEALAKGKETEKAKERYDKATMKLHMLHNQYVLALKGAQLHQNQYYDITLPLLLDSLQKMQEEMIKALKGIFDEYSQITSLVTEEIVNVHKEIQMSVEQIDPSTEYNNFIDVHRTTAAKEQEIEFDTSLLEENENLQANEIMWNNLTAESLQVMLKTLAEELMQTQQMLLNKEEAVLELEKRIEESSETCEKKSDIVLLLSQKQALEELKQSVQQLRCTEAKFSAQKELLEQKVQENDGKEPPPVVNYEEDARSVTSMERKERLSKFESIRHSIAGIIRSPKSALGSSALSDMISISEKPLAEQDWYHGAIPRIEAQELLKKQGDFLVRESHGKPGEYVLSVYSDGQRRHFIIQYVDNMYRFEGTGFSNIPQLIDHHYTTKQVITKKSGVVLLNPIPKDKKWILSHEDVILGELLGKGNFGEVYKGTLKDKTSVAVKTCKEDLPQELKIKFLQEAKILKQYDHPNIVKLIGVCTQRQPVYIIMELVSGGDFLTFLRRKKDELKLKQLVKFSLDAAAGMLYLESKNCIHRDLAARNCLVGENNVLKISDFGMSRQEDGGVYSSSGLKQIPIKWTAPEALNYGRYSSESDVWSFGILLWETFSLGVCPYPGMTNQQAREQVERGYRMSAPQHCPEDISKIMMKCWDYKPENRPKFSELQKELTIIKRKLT
Calcium/calmodulin-dependent protein kinase kinase 2 (Homo sapiens), sequence (Q96RR4 2-588 limits assumed): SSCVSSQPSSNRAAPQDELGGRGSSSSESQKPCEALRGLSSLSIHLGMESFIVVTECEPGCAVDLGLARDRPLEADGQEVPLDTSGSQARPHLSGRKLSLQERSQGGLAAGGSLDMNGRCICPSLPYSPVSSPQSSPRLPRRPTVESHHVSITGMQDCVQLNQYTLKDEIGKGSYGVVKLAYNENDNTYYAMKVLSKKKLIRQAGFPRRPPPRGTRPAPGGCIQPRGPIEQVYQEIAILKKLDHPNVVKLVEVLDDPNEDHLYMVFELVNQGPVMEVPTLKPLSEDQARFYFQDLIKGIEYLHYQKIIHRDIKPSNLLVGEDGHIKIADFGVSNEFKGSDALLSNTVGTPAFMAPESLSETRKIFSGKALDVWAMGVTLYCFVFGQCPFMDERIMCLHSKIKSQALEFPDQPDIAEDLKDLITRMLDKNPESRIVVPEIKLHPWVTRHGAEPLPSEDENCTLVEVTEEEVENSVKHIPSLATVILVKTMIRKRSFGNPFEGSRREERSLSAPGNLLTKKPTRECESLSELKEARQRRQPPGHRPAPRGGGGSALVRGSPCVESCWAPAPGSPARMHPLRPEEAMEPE
Casein kinase I isoform delta (Homo sapiens), sequence (P48730 whole entry, looked up, canonical isoform): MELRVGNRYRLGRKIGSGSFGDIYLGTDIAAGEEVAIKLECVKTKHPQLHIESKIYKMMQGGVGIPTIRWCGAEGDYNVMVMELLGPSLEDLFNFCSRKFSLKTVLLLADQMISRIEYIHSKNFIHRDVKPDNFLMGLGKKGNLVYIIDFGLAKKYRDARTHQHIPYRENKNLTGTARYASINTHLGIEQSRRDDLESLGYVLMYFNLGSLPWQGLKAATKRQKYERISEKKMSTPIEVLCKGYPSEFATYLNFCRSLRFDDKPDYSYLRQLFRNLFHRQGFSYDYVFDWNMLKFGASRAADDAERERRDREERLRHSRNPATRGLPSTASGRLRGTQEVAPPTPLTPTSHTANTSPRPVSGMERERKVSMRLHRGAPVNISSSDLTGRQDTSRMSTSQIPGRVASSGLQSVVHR

CCc1ccccc1C(=O)Nc1n[nH]c2c(C)c(F)c(C3C(C#N)=C(C)N(C)C(C)=C3C#N)cc12 [BAY-3827]
inactive: residual activity [1] 95% | residual activity [2] 100% | residual activity [3] 90% | residual activity [4] 97% | residual activity [5] 100% | residual activity [6] 86% | residual activity [7] 100% | residual activity [8] 100% | residual activity [9] 100% | residual activity [10] 100% | inhibition [11] 2.75%

CC1=C(C#N)C(c2ccc3c(c2)c(NC(=O)c2ccccc2C)nn3C)C(C#N)=C(C)N1 [BAY-974]
inactive: residual activity [1] 100% | residual activity [2] 89% | residual activity [3] 88% | residual activity [4] 97% | residual activity [5] 100% | residual activity [6] 89% | residual activity [7] 100% | residual activity [8] 100% | residual activity [9] 88% | residual activity [10] 72% | inhibition [11] 4.71%
